This passage reports target mRNA inhibition results from the OligoGym collection.

For this data set, the target named is DGAT2. The following applies: ASO.

Several values for one entry are separate records, joined by “and”; a condition that tells them apart may be missing. Equal values may be shown once. After the bases stand the sugars from the 5' end (letter, count) and the backbone: PS all phosphorothioate, else s phosphorothioate and o phosphodiester by linkage. Methylation of C is not given here. e = 2'-O-(2-methoxyethyl) (MOE); d = 2'-deoxy (DNA)

Turning to “CTCCCACCTGAGTGCTGCAA (sugars e5 d10 e5, PS)”, the target mRNA inhibition amounted to 74% (HepG2, 2.5 µM) and 90% (HepG2, 10 µM).
“GGTGCTCTCATTTCTTATCT (sugars e5 d10 e5, PS)”: the target mRNA inhibition is 56% and 59% (HepG2, 2.5 µM); 82% and 92% (HepG2, 10 µM).
As to “GTCTCTCATAATTGCCAGTT (sugars e5 d10 e5, PS)”, the target mRNA inhibition by setting is: (HepG2, 2.5 µM) 53% and 66%; (HepG2, 10 µM) 83% and 87%.
“GCTTGGAGTAGGGCACCAGC (sugars e5 d10 e5, PS)” displayed a target mRNA inhibition (HepG2, 0.12 µM) of 45%.
Regarding “GCATAGCTGAGCAAATCCAT (sugars e5 d10 e5, PS)”, the target mRNA inhibition is 69% (HepG2, 2.5 µM) and 85% (HepG2, 10 µM).
For the setting “HepG2, 0.12 µM”, “GATGGCAACCTAAGGAGTGA (sugars e5 d10 e5, PS)” came in with a target mRNA inhibition of 37%.
In the case of “CTTAGGCATGCTTCCTCCCA (sugars e5 d10 e5, PS)”, the target mRNA inhibition runs as follows: (HepG2, 2.5 µM) 57%; (HepG2, 10 µM) 84%.
The sequence “TGTTATCCGAGTTGAATTCT (sugars e5 d10 e5, PS)” had a target mRNA inhibition (HepG2, 0.12 µM) of 45%.
Still for that read-out and setting: the result for “TTTCCTTCTTAAAAAAGACC (sugars e5 d10 e5, PS)” reads 9%; that for “CCACTCCCATTCTTTGAAAG (sugars e5 d10 e5, PS)”, 34%.
“GTGCAAGAGTTACCTCCTCC (sugars e5 d10 e5, PS)”: the target mRNA inhibition is 80% and 78% (HepG2, 2.5 µM); 94% and 92% (HepG2, 10 µM).
“ATAGCATTGCCACTCCCATT (sugars e5 d10 e5, PS)” had a target mRNA inhibition (HepG2, 0.12 µM) of 57%.
“GCACTTGATCTGGGACCCAA (sugars e5 d10 e5, PS)”: the target mRNA inhibition was 69% and 73% (HepG2, 2.5 µM); 95% and 92% (HepG2, 10 µM).
Turning to “CAGCCTGGACAAGTCCTGCC (sugars e5 d10 e5, PS)”, the target mRNA inhibition is 84% (HepG2, 0.12 µM); 81% and 90% and 88% (HepG2, 10 µM); 86% (HepG2, 20 µM).
Regarding “AGGATGCAGGGTTACCCAGC (sugars e5 d10 e5, PS)”, the target mRNA inhibition runs as follows: (HepG2, 2.5 µM) 81%; (HepG2, 10 µM) 71%.
Under “HepG2, 0.12 µM”, “TTGAAAGCAAATAGTCTATG (sugars e5 d10 e5, PS)” came in with a target mRNA inhibition of 42%.
In the case of “AGCCTGGACAAGTCCTGCCC (sugars e3 d14 e3, PS)”, the target mRNA inhibition (HepG2, 0.12 µM) was found to be 82%; the target mRNA inhibition (HepG2, 2.5 µM) is 35% and 53%; the target mRNA inhibition (HepG2, 10 µM) worked out at 84%; the target mRNA inhibition (HepG2, 20 µM) worked out at 59%.
Under “HepG2, 0.12 µM”, “AAGGCACCCAGGCCCATGAT (sugars e5 d10 e5, PS)” yielded a target mRNA inhibition of 46%.
Same read-out and setting: the result for “GGTCAGCAGGTTGTGTGTCT (sugars e2 d13 e5, PS)” reads 45%; that for “TTGTGTGTCTTCACCAGCTG (sugars e2 d13 e5, PS)”, 71%; that for “GGAGCTCAGAGACTCAGCCG (sugars e2 d13 e5, PS)”, 65%.
The same measure, in the same setting: the result for “ATCCAAAGATATAGTTCCTG (sugars e5 d10 e5, PS)” reads 39%.
Take “GCCAGGTGCTCTCATTTCTT (sugars e5 d10 e5, PS)”: the target mRNA inhibition amounted to 63% (HepG2, 2.5 µM) and 91% (HepG2, 10 µM).
For “GGTGAATAGCTATGTCTAAA (sugars e5 d10 e5, PS)”, the target mRNA inhibition was 70% and 55% (HepG2, 2.5 µM); 91% and 85% (HepG2, 10 µM).
With “CCCATCATGACCAGGCCCTG (sugars e5 d10 e5, PS)”, the target mRNA inhibition by setting is: (HepG2, 2.5 µM) 31%; (HepG2, 10 µM) 77%.
Consider “TCACCTGCTTGTACACTTCA (sugars e5 d10 e5, PS)”, for which, where the note is “HepG2, 0.12 µM”, the target mRNA inhibition came out at 40%.
As to “TACCTGCTATGCTGAGAGCA (sugars e5 d10 e5, PS)”, the target mRNA inhibition is, setting by setting: (HepG2, 2.5 µM) 65%; (HepG2, 10 µM) 80%.
For “GGGACTCAGTGTCCTCCTTA (sugars e5 d10 e5, PS)”, in that order: 69% and 78%.
In the same order, the values of “AGCAATGCCAATGCCTAGGT (sugars e5 d10 e5, PS)” are 82% and 93%.
“ATGGAGCTCAGAGACTCAGC (sugars e3 d14 e3, PS)” returned a target mRNA inhibition (HepG2, 0.12 µM) of 71%.
The same measure, in the same setting: the result for “GTGTCGGAGGAGAAGAGGCC (sugars e5 d10 e5, PS)” reads 52%.
For “CAGAAGAGCAAAGGCTTGCT (sugars e5 d10 e5, PS)”, the target mRNA inhibition reads like this: (HepG2, 2.5 µM) 50%; (HepG2, 10 µM) 94%.
Turning to “GACCTTGGGCAAGTTACCTA (sugars e5 d10 e5, PS)”, the target mRNA inhibition runs as follows: (HepG2, 2.5 µM) 50% and 71%; (HepG2, 10 µM) 89% and 94%.
Where the note is “HepG2, 0.12 µM”, “ATACCTCCAGACATCAGGTA (sugars e5 d10 e5, PS)” gave a target mRNA inhibition of 50%.
On the same count and under the same terms, the result for “AGCTCAGAGACTCAGCCGCA (sugars e3 d14 e3, PS)” reads 77%.
Take “CACTCTGTGATGCTCTGGAG (sugars e5 d10 e5, PS)”: the target mRNA inhibition is, setting by setting: (HepG2, 2.5 µM) 60%; (HepG2, 10 µM) 84%.
